Data published in ChEMBL document CHEMBL5120965, “Moroidin, a Cyclopeptide from the Seeds of Celosia cristata That Induces Apoptosis in A549 Human Lung Cancer Cells” (J Nat Prod, 2022).
Active and inactive are the calls of the source. The rule behind the calls is not given here.

Key:
[1] = tested on: A549; assay: Induction of cell apoptosis in human A549 cells assessed as increase in Bax expression level at 5 to 20 uM measured after 48 hrs by Western blot analysis; format: functional, cell-based; settings: dose 5-20 µM
[2] = tested on: A549; assay: Inhibition of colony formation in human A549 cells up to 20 uM measured after 10 days by crystal violet staining based assay; format: functional, cell-based; settings: dose 1.25-20 µM, time 10.0 day, DDE = dose-dependent effect
[3] = tested on: A549; assay: Induction of cell apoptosis in human A549 cells assessed as increase in Bax/Bcl-2 ratio at 5 to 20 uM measured after 48 hrs by Western blot analysis; format: functional, cell-based; settings: dose 5-20 µM
[4] = tested on: A549; assay: Induction of microtubule depolymerization in human A549 cells assessed as reduction in tubulin protein level at 2.5 uM by Western blot analysis; format: functional; set-up: scale not given: the % may be the effect or the level left
[5] = tested on: A549; assay: Induction of cell cycle arrest in human A549 cells assessed as increase in accumulation of cells at G2/M phase at 5 to 20 uM measured after 48 hrs by […]propidium iodide staining based flow cytometry analysis (reference value: 8.33%); format: functional; settings: dose 5-20 µM
[6] = tested on: MCF7; assay: Inhibition of colony formation in human MCF7 cells measured after 10 days by crystal violet staining based assay; format: functional, cell-based; settings: dose 1.25-20 µM, time 10.0 day, DDE = dose-dependent effect
[7] = tested on: A549; assay: Induction of cell apoptosis in human A549 cells assessed as increase in apoptosis rate at 5 uM measured after 48 hrs by annexinV-FITC/propidium iodide staining based flow cytometry analysis (reference value: 3.27%); format: functional
[8] = tested on: A549; assay: Induction of cell apoptosis in human A549 cells assessed as increase in PARP level measured after 48 hrs by Western blot analysis; format: functional, cell-based; settings: dose 5-20 µM, DDE = dose-dependent effect
[9] = tested on: U-87 MG; assay: Cytotoxicity against human U87 cells assessed as reduction in cell viability incubated for 72 hrs by MTT assay; format: functional, cell-based, U-87MG ATCC
[10] = tested on: A549; assay: Antimigratory activity against human A549 cells assessed as migration of cells into scratch area at 1 uM measured after 48 hrs by scratch assay based microscopic analysis (reference value: 85.15%); format: functional
[11] = tested on: A549; assay: Induction of cell apoptosis in human A549 cells assessed as reduction in AKT phosphorylation at 5 to 20 uM measured after 48 hrs by Western blot analysis; format: functional, cell-based; settings: dose 5-20 µM
[12] = tested on: A549; assay: Induction of cell apoptosis in human A549 cells assessed as increase in cleaved-caspase 3 level measured after 48 hrs by Western blot analysis; format: functional, cell-based; settings: dose 5-20 µM, DDE = dose-dependent effect
[13] = tested on: A549; assay: Induction of cell apoptosis in human A549 cells assessed as increase in cleaved PARP level measured after 48 hrs by Western blot analysis; format: functional, cell-based; settings: dose 5-20 µM, DDE = dose-dependent effect
[14] = tested on: A549; assay: Induction of cell apoptosis in human A549 cells assessed as reduction in AKT expression at 5 to 20 uM measured after 48 hrs by Western blot analysis; format: functional, cell-based; settings: dose 5-20 µM
[15] = tested on: A549; assay: Induction of cell apoptosis in human A549 cells assessed as decrease in Bcl-2 expression level at 5 to 20 uM measured after 48 hrs by Western blot analysis; format: functional, cell-based; settings: dose 5-20 µM
[16] = tested on: A549; assay: Induction of microtubule depolymerization in human A549 cells assessed as reduction in microtubule network measured after 48 hrs by DAPI staining based immunofluorescence assay; format: functional, cell-based; settings: dose 2.5-5 µM
[17] = tested on: A549; assay: Induction of cell apoptosis in human A549 cells assessed as increase in apoptosis rate at 20 uM measured after 48 hrs by annexinV-FITC/propidium iodide staining based flow cytometry analysis (reference value: 3.27%); format: functional
[18] = tested on: A549; assay: Induction of cell apoptosis in human A549 cells assessed as increase in cleaved-caspase 9 level measured after 48 hrs by Western blot analysis; format: functional, cell-based; settings: dose 5-20 µM, DDE = dose-dependent effect
[19] = tested on: A549; assay: Antiinvasive activity against human A549 cells assessed as reduction in number of invasion cells measured after 48 hrs by transwell assay based microscopic analysis; format: functional, cell-based; settings: dose 0.5-2 µM, DDE = dose-dependent effect
[20] = tested on: A549; assay: Antimigratory activity against human A549 cells assessed as migration of cells into scratch area at 2 uM measured after 48 hrs by scratch assay based microscopic analysis (reference value: 85.15%); format: functional
[21] = tested on: A549; assay: Induction of microtubule depolymerization in human A549 cells assessed as fragmentation of microtubule network measured after 48 hrs by DAPI staining based immunofluorescence assay; format: functional, cell-based; settings: dose 2.5-5 µM
[22] = tested on: A549; assay: Induction of cell apoptosis in human A549 cells assessed as increase in pro-caspase 9 level measured after 48 hrs by Western blot analysis; format: functional, cell-based; settings: dose 5-20 µM, DDE = dose-dependent effect
[23] = tested on: MCF7; assay: Cytotoxicity against human MCF7 cells assessed as reduction in cell viability incubated for 72 hrs by MTT assay; format: functional, cell-based; settings: MCF7, 72 h
[24] = tested on: NCI-H1299; assay: Cytotoxicity against human H1299 cells assessed as reduction in cell viability incubated for 72 hrs by MTT assay; format: functional, cell-based; settings: NCI-H1299, 72 h
[25] = tested on: A549; assay: Antimigratory activity against human A549 cells assessed as migration of cells into scratch area at 0.5 uM measured after 48 hrs by scratch assay based microscopic analysis (reference value: 85.15%); format: functional
[26] = tested on: U-251; assay: Cytotoxicity against human U-251 cells assessed as reduction in cell viability incubated for 72 hrs by MTT assay; format: functional, cell-based; settings: U-251, 72 h
[27] = tested on: A549; assay: Induction of cell cycle arrest in human A549 cells assessed as decrease in ratio of cells at G1 phase measured after 48 hrs by […]propidium iodide staining based flow cytometry analysis; format: functional; settings: dose 5-20 µM, DDE = dose-dependent effect
[28] = tested on: A549; assay: Cytotoxicity against human A549 cells assessed as reduction in cell viability incubated for 72 hrs by MTT assay; format: functional, cell-based; settings: A549, 72 h
[29] = tested on: A549; assay: Induction of cell apoptosis in human A549 cells assessed as increase in pro-caspase 3 level measured after 48 hrs by Western blot analysis; format: functional, cell-based; settings: dose 5-20 µM, DDE = dose-dependent effect
[30] = tested on: A549; assay: Induction of cell apoptosis in human A549 cells assessed as increase in apoptosis rate at 10 uM measured after 48 hrs by annexinV-FITC/propidium iodide staining based flow cytometry analysis (reference value: 3.27%); format: functional
[31] = tested on: A549; assay: Antimigratory activity against human A549 cells assessed as reduction in number of migrated cells measured after 48 hrs by transwell assay based microscopic analysis; format: functional, cell-based; settings: dose 0.5-2 µM, DDE = dose-dependent effect
[32] = tested on: HCT-116; assay: Cytotoxicity against human HCT-116 cells assessed as reduction in cell viability incubated for 72 hrs by MTT assay; format: functional, cell-based; settings: HCT-116, 72 h
[33] = tested on: A549; assay: Antiproliferative activity against human A549 cells assessed as reduction in cell viability at 0.01 to 100 uM measured after 24 to 72 hrs by MTT assay; format: functional, cell-based; settings: dose 0.01-100 µM, time 24-72 hrs
[34] = tested on: A549; assay: Induction of microtubule depolymerization in human A549 cells assessed as occurence of cell shrinkage at 2.5 uM measured after 48 hrs by DAPI staining based immunofluorescence assay; format: functional
[35] = tested on: A549; assay: Induction of microtubule depolymerization in human A549 cells assessed as occurence of rounded cells at 2.5 uM measured after 48 hrs by DAPI staining based immunofluorescence assay; format: functional, cell-based

Question: For CC(C)C[C@@H]1NC(=O)[C@@H](NC(=O)[C@@H]2CCC(=O)N2)[C@H](C(C)C)c2ccc3c4c([nH]c3c2)-n2cnc(c2)C[C@@H](C(=O)O)NC(=O)CNC(=O)[C@H](CCCNC(=N)N)NC(=O)[C@H](C4)NC(=O)[C@H](C(C)C)NC1=O, which Activity [1] is on record?
Answer: Its Activity is “Active”.

Question: And the inhibition [2]?
Answer: The inhibition was “Dde”.

Question: What about the Activity [3] of the same compound?
Answer: The Activity was “Active”.

Question: What about the Activity [4] of the same compound?
Answer: Its Activity is 20%.

Question: And the Activity [5]?
Answer: The Activity was 36.35%.

Question: What about the inhibition [6] of the same compound?
Answer: The inhibition was “Dde”.

Question: What about the Activity [7] of the same compound?
Answer: Its Activity is 6.14%.

Question: What about the Activity [8] of the same compound?
Answer: Its Activity is “Dde”.

Question: What about the IC50 [9] of the same compound?
Answer: The IC50 was 9.6 µM.

Question: And the Activity [10]?
Answer: Its Activity is 40.22%.

Question: And the Activity [11]?
Answer: The Activity was “Active”.

Question: And the Activity [12]?
Answer: Its Activity is “Dde”.

Question: And the Activity [13]?
Answer: Its Activity is “Dde”.

Question: And the Activity [14]?
Answer: The Activity was “Active”.

Question: And the Activity [15]?
Answer: The Activity was “Active”.

Question: And the Activity [16]?
Answer: Its Activity is “Active”.

Question: And the Activity [17]?
Answer: The Activity was 20.62%.

Question: What about the Activity [18] of the same compound?
Answer: The Activity was “Dde”.

Question: And the Activity [19]?
Answer: Its Activity is “Dde”.

Question: And the Activity [20]?
Answer: Its Activity is 21.92%.

Question: What about the Activity [21] of the same compound?
Answer: The Activity was “Active”.

Question: And the Activity [22]?
Answer: The Activity was “Dde”.

Question: And the IC50 [23]?
Answer: The IC50 was greater than 10 µM.

Question: What about the IC50 [24] of the same compound?
Answer: The IC50 was 8.3 µM.

Question: What about the Activity [25] of the same compound?
Answer: The Activity was 60.84%.

Question: And the IC50 [26]?
Answer: The IC50 was 5.2 µM.

Question: And the Activity [27]?
Answer: The Activity was “Dde”.

Question: What about the IC50 [28] of the same compound?
Answer: The IC50 was 3.2 µM.

Question: What about the Activity [29] of the same compound?
Answer: Its Activity is “Dde”.

Question: What about the Activity [30] of the same compound?
Answer: The Activity was 11.4%.

Question: What about the Activity [31] of the same compound?
Answer: Its Activity is “Dde”.

Question: And the IC50 [32]?
Answer: Its IC50 is 9.9 µM.

Question: What does the source list for COc1cc2c(c(OC)c1OC)-c1ccc(OC)c(=O)cc1[C@@H](NC(C)=O)CC2 [COLCHICINE]?
Answer: Activity [4]: 63%; Activity [33]: Active; Activity [34]: Active; Activity [35]: Active
